Experiments:
[1] = Fragmentation of pyridine adducts in deuterated aqueous buffer followed by 1H NMR; format: physicochemical
From the text: The fragmentation of cationic adducts was followed by ^1H NMR in deuterated buffer, with the relative concentration of each species established by integration of unique resonances. Each adduct in Table 3 and Table 4 was thus examined in three independent runs. […]

CHO-K1 cells = format: cell-based; conditions: for concentrations at which nontoxic: Chinese hamster
Experimental: Approximately 1×10^4 CHO-K1 cells/well were plated in a 96-well plate in 100 μL of complete growth media, and adhered overnight at 37° C. The media was then replaced by 100 μL of polymer or monomer in serum-free media at the indicated concentration. Full media was replenished after 4 or 24 h. Viability was measured by MTT assay, with non-treated cells assigned as 100% viability. The results are plotted in FIGS. 11A-11D and 12A-12H.

[2] = pseudo first order fragmentation at 50° C., deuterated buffer
[3] = pseudo first order fragmentation at 37° C.

Compound	krel ([1]; 50° C., relative to 5e = 1.00)	kfrag [1, 2]	concentration up to which no effect (toxicity) (CHO-K1 cells) [µM]	krel ([1]; 37° C., relative to 5i = 1)	kfrag [1, 3]	concentrations at which nontoxic (CHO-K1 cells)
Brc1ccc[n+](C2CCC3SC2CCC3[n+]2cccc(Br)c2)c1.O=[N+]([O-])[O-].O=[N+]([O-])[O-] (centres unmarked) [Compound 5f, 2,6-di-3-bromopyridinium-9-thiabicyclo[3.3.1]nonane dinitrate]	4.05	(6.59 ± 0.58) × 10^−2 h^−1				
COc1cc(Br)c[n+](C2CCC3SC2CCC3[n+]2cc(Br)cc(OC)c2)c1.O=[N+]([O-])[O-].O=[N+]([O-])[O-] (centres unmarked) [Compound 5i, 2,6-di-3-bromo-5-methoxylpyridinium-9-thiabicyclo[3.3.1]nonane dinitrate]	4.64	(7.51 ± 0.53) × 10^−2 h^−1	≥ 500	1	(0.55 ± 0.04) × 10^−2 h^−1	
NC(=O)c1cc[n+](C2CCC3SC2CCC3[n+]2ccc(C(N)=O)cc2)cc1.O=[N+]([O-])[O-].O=[N+]([O-])[O-] (centres unmarked) [Compound 5e, 2,6-di-4-carbamylpyridinium-9-thiabicyclo[3.3.1]nonane dinitrate]	1.00	(1.62 ± 0.10) ×10^−2 h^−1				
COC(=O)c1cc(C(=O)OC)c[n+](C2CCC3SC2CCC3[n+]2cc(C(=O)OC)cc(C(=O)OC)c2)c1.O=S(=O)([O-])C(F)(F)F.O=S(=O)([O-])C(F)(F)F (centres unmarked) [Compound 5k, 2,6-di-3,5-dimethoxycarbonylpyridinium-9-thiabicyclo[3.3.1]nonane ditriflate]				22	(11.9 ± 1.13) × 10^−2 h^−1	
NC(=O)c1ccc[n+](C2CCC3SC2CCC3[n+]2cccc(C(N)=O)c2)c1.O=[N+]([O-])[O-].O=[N+]([O-])[O-] (centres unmarked) [Compound 5d, 2,6-di-3-carbamylpyridinium-9-thiabicyclo[3.3.1]nonane dinitrate]	1.95	(3.18 ± 0.32) ×10^−2 h^−1				
O=C(OCCCOC(=O)c1ccncc1)c1ccncc1 [monomer 2c]						below 500 μM
c1cc(CCCc2ccncc2)ccn1 [monomer 2a]						below 500 μM
COC(=O)c1ccc[n+](C2CCC3SC2CCC3[n+]2cccc(C(=O)OC)c2)c1.O=[N+]([O-])[O-].O=[N+]([O-])[O-] (centres unmarked) [Compound 5b, 2,6-di-3-methoxycarbonylpyridinium-9-thiabicyclo[3.3.1]nonane dinitrate]	1.86	(3.03 ± 0.38) × 10^−2 h^−1				
FC(F)(F)c1ccc[n+](C2CCC3SC2CCC3[n+]2cccc(C(F)(F)F)c2)c1.O=[N+]([O-])[O-].O=[N+]([O-])[O-] (centres unmarked) [Compound 5g, 2,6-di-3-trifluoromethylpyridinium-9-thiabicyclo[3.3.1]nonane dinitrate]	46.2	(74.8 ± 5.4) × 10^−2 h^−1		11	(5.87 ± 0.71) × 10^−2 h^−1	
NC(=O)c1cc(Br)c[n+](C2CCC3SC2CCC3[n+]2cc(Br)cc(C(N)=O)c2)c1.O=S(=O)([O-])C(F)(F)F.O=S(=O)([O-])C(F)(F)F (centres unmarked) [Compound 5j, 2,6-di-3-bromo-5-carbamylpyridinium-9-thiabicyclo[3.3.1]nonane ditriflate]				17	(9.34 ± 0.87) × 10^−2 h^−1	
COC(=O)c1cc(Br)c[n+](C2CCC3SC2CCC3[n+]2cc(Br)cc(C(=O)OC)c2)c1.O=S(=O)([O-])C(F)(F)F.O=S(=O)([O-])C(F)(F)F (centres unmarked) [Compound 5l, 2,6-di-3-bromo-5-methoxycarbonylpyridinium-9-thiabicyclo[3.3.1]nonane ditriflate]				20	(10.9 ± 1.81) × 10^−2 h^−1	
N#Cc1ccc[n+](C2CCC3SC2CCC3[n+]2cccc(C#N)c2)c1.O=[N+]([O-])[O-].O=[N+]([O-])[O-] (centres unmarked) [Compound 5h, 2,6-di-3-cyanopyridinium-9-thiabicyclo[3.3.1]nonane dinitrate]	6.68	(10.8 ± 0.98) × 10^−2 h^−1		2.1	(1.14 ± 0.16) × 10^−2 h^−1	
COC(=O)c1cc[n+](C2CCC3SC2CCC3[n+]2ccc(C(=O)OC)cc2)cc1.O=[N+]([O-])[O-].O=[N+]([O-])[O-] (centres unmarked) [Compound 5c, 2,6-di-4-methoxycarbonylpyridinium-9-thiabicyclo[3.3.1]nonane dinitrate]	2.25	(3.66 ± 0.33) × 10^−2 h^−1	≥ 500	0.3	(0.16 ± 0.01) × 10^−2 h^−1	
Brc1cncc(OCCCOc2cncc(Br)c2)c1 [monomer 2i, 1,3-bis((5-bromopyridin-3-yl)oxy)propane]						below 500 μM

From patent publication US11589590B2, “Antimicrobial coatings and methods of making and using thereof” (GEORGIA TECH RESEARCH CORPORATION, priority 2016, dated 2023)
